Source: patent US20230405118A1, “STAT-ACTIVATED MACROPHAGES, COMPOSITIONS, AND USES THEREOF” (THE GEORGE WASHINGTON UNIVERSITY, A CONGRESSIONALLY …, priority 2020, published 2023)

Legend:
Format in all cases: cell-based, mouse
[1] = tested on: M2 macrophages (bone marrow derived macrophages polarized with IL4/IL13); assay: M2 polarization of pre-treated BMDMs, CD206 marker by flow cytometry; conditions: naïve BMDMs pre-treated with compound, then polarized to M2 with IL4/IL13; FIG. 1
Experimental: (§1) Bone marrow derived macrophages (BMDMs): For macrophage isolation, bone marrow from 6-12 weeks old C57BL/6 mouse was used following an IACUC approved protocol. Briefly, femurs and tibia bones were isolated after removing the skeletal muscles. The bone marrow was flushed with RPMI complete medium supplemented with non-essential amino acids. A single-cell suspension of bone marrow was prepared with repeated pipetting and incubated with 20 ng/mL of mouse recombinant M-CSF (Biolegend) at 37° C. for 4 days to differentiate into macrophages.
Flow cytometry: Flow cytometry was performed following the protocol described previously. Knox et al., Sci Rep. 2019 Oct. 10; 9(1):14824. doi: 10.1038/s41598-019-51403-6. Briefly, mice were euthanized following the IACUC protocol, and tumor cells were processed into a single cell suspension for analysis by flow cytometry with tumor digestion buffer. The following antibodies were used to stain cell surface markers expressed by different immune cells. All the antibodies were purchased from Biolegend (San Diego, CA) unless otherwise specified. Myeloid cell surface markers are as follows: APC anti-mouse CD80 (clone 16-10A1), PE/Cy7 anti-mouse CD206 (MMR) (clone C068C2), APC/Fire™ 750 anti-mouse CD45.2 (clone 104), FITC anti-mouse H-2 (clone M1/42), Brilliant Violet 785TM anti-mouse F4/80 (clone BM8), and Alexa Fluor® 700 anti-mouse CD3 (clone 17A2). […]

Arginase I = Arginase I gene expression by quantitative real-time PCR in pre-treated macrophages; conditions: FIG. 2
Experimental: as §1
(§2) Bone marrow derived macrophages (BMDMs) were differentiated into macrophages with M-CSF. These naïve macrophages were pre-treated with Nexturastat A (NextA) or 6-nitrobenzo[b]thiophene-1,1-dioxide (Stattic) and polarized to M2 macrophages with IL4/IL13. Pre-treatment with NextA and Stattic decreased polarization of M2 macrophages as indicated by flow cytometry.
(§3) Further validation of M2 polarization markers at gene expression levels by quantitative real-time PCR indicate that Arginase I, TGFβ, and FIZZ1, which are tumor-promoting factors, were decreased. FIG. 2, FIG. 3, and FIG. 4.

TGFβ = TGFβ gene expression by quantitative real-time PCR in pre-treated macrophages; conditions: FIG. 3
Experimental: as §1, §2, §3

FIZZ1 = FIZZ1 gene expression by quantitative real-time PCR in pre-treated macrophages; conditions: FIG. 4
Experimental: as §1, §2, §3

| Arginase I expression level (M2 polarization marker) (Arginase I) | SMILES | polarization of M2 macrophages (CD206 as marker, flow cytometry) [1] | TGFβ expression level (M2 polarization marker) (TGFβ) | FIZZ1 expression level (M2 polarization marker) (FIZZ1) |
| --- | --- | --- | --- | --- |
| decreased | CCCCN(Cc1ccc(C(=O)NO)cc1)C(=O)Nc1ccccc1 [NextA, Nexturastat A] | decreased | decreased | decreased |
| decreased | O=[N+]([O-])c1ccc2c(c1)S(=O)(=O)C=C2 [Stattic, 6-nitrobenzo[b]thiophene-1,1-dioxide] | decreased | decreased | decreased |
